From PubChem BioAssay AID248 (DTP/NCI, 2004)
Values joined by “and” are separate entries in the source; they are usually repeats but may differ in a detail not shown here. Identical values can stand only once. Toxic doses and inconclusive results are not listed. Rule as the data show it: active = T/C of 150% or more; inactive = T/C below 125%. Peptide text beside a SMILES is read from it. * marks the point of attachment. Cbz = O=C(OCc1ccccc1)*

Tested on: L1210 leukemia ip in BDF1 mice, survival T/C
Assay: NCI In Vivo Anticancer Drug Screen. Data for tumor model L1210 Leukemia (intraperitoneal) in B6D2F1 (BDF1) mice
Conditions: endpoint: mean survival time, higher = longer survival
In short: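 Tumor cells were implanted, animals were treated, and survival was followed. The result divides the treated measurement by the vehicle-control measurement.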

[1] = dose: 100.0 mg/kg/injection, schedule: Q01DX001 (ip), vehicle: Klucel (hydroxypropylcellulose) (HPC)
[2] = dose: 200.0 mg/kg/injection, schedule: Q01DX001 (ip), vehicle: Klucel (hydroxypropylcellulose) (HPC)
[3] = dose: 100.0 mg/kg/injection, schedule: Q04DX003 (ip), vehicle: saline with Tween-80
[4] = dose: 200.0 mg/kg/injection, schedule: Q04DX003 (ip), vehicle: saline with Tween-80
[5] = dose: 400.0 mg/kg/injection, schedule: Q04DX003 (ip), vehicle: saline with Tween-80
[6] = dose: 100.0 mg/kg/injection, schedule: Q04DX003 (ip), vehicle: saline
[7] = dose: 200.0 mg/kg/injection, schedule: Q04DX003 (ip), vehicle: saline
[8] = dose: 100.0 mg/kg/injection, schedule: Q01DX009 (ip), vehicle: Klucel (hydroxypropylcellulose) (HPC)
[9] = dose: 100.0 mg/kg/injection, schedule: Q04DX003 (ip), vehicle: Klucel (hydroxypropylcellulose) (HPC)
[10] = dose: 200.0 mg/kg/injection, schedule: Q04DX003 (ip), vehicle: Klucel (hydroxypropylcellulose) (HPC)
[11] = dose: 400.0 mg/kg/injection, schedule: Q01DX009 (ip), vehicle: Klucel (hydroxypropylcellulose) (HPC)
[12] = dose: 400.0 mg/kg/injection, schedule: Q04DX003 (ip), vehicle: Klucel (hydroxypropylcellulose) (HPC)
[13] = dose: 100.0 mg/kg/injection, schedule: Q01DX001 (ip), vehicle: saline
[14] = dose: 200.0 mg/kg/injection, schedule: Q01DX001 (ip), vehicle: saline
[15] = dose: 400.0 mg/kg/injection, schedule: Q01DX001 (ip), vehicle: saline
[16] = dose: 25.0 mg/kg/injection, schedule: Q04DX003 (ip), vehicle: saline
[17] = dose: 50.0 mg/kg/injection, schedule: Q04DX003 (ip), vehicle: saline
[18] = dose: 25.0 mg/kg/injection, schedule: Q01DX009 (ip), vehicle: Klucel (hydroxypropylcellulose) (HPC)
[19] = dose: 50.0 mg/kg/injection, schedule: Q01DX001 (ip), vehicle: saline
[20] = dose: 100.0 mg/kg/injection, schedule: Q01DX001 (ip), vehicle: carboxymethylcellulose (CMC)
[21] = dose: 200.0 mg/kg/injection, schedule: Q01DX001 (ip), vehicle: carboxymethylcellulose (CMC)
[22] = dose: 200.0 mg/kg/injection, schedule: Q01DX009 (ip), vehicle: Klucel (hydroxypropylcellulose) (HPC)
[23] = dose: 50.0 mg/kg/injection, schedule: Q01DX009 (ip), vehicle: Klucel (hydroxypropylcellulose) (HPC)
[24] = dose: 100.0 mg/kg/injection, schedule: Q04DX002 (ip), vehicle: Klucel (hydroxypropylcellulose) (HPC)

Measured: T/C

c1ccc(C2=NC(c3ccccc3)N3CC23c2ccccc2)cc1 (stereo not given)
inactive: [1] 97 % of control | [2] 94 % of control

C[N+](C)(Cc1ccccc1)C1c2ccccc2-c2ccccc21
inactive: dose: 0.5 mg/kg/injection, schedule: Q04DX002 (ip), vehicle: Klucel (hydroxypropylcellulose) (HPC) 109 % of control | dose: 1.0 mg/kg/injection, schedule: Q04DX002 (ip), vehicle: Klucel (hydroxypropylcellulose) (HPC) 109 % of control | dose: 2.0 mg/kg/injection, schedule: Q04DX002 (ip), vehicle: Klucel (hydroxypropylcellulose) (HPC) 109 % of control

CCCCCCCCCCCCCCCCCCCCCCCC(=O)NCCc1c[nH]c2ccc(O)cc12 (tested in a mixture with another compound)
inactive: [3] 96 % of control | [4] 96 % of control | [5] 86 % of control

[CH3][Sb]1([Cl])[CH2]CC[CH2]1
inactive: [3] 103 % of control | [6] 101 % of control | [4] 107 % of control | [7] 108 % of control

O=c1c(O)c(-c2ccc(Cl)cc2)oc2cc(O)ccc12
inactive: dose: 100.0 mg/kg/injection, schedule: Q01DX001 (ip), vehicle: other 101 % of control | dose: 200.0 mg/kg/injection, schedule: Q01DX001 (ip), vehicle: other 101 % of control | dose: 400.0 mg/kg/injection, schedule: Q01DX001 (ip), vehicle: other 93 % of control

CC(=O)Nc1ccc(OC(=O)Nc2ccccc2Cl)cc1
inactive: [8] 101 % of control | [9] 96 % of control | [10] 95 % of control | [11] 101 % of control | [12] 95 % of control

[I][Ga]([I])[I]
inactive: [13] 101 % of control | [14] 108 % of control | [15] 111 % of control

Cc1cnc(SCc2ccc(Cl)cc2)nc1N(Cc1ccccc1)Cc1ccccc1
inactive: dose: 100.0 mg/kg/injection, schedule: Q01DX Z (ip), vehicle: methylcellulose (MC) 87 % of control

c1ccc(CNc2ncnc3c2ncn3Cc2ccccc2)cc1
inactive: [1] 94 % of control | [2] 104 % of control | dose: 400.0 mg/kg/injection, schedule: Q01DX001 (ip), vehicle: Klucel (hydroxypropylcellulose) (HPC) 98 % of control

CSc1ncc2n1C=CN(C(=O)c1ccc([N+](=O)[O-])cc1)C2O (stereo not given)
inactive: dose: 25.0 mg/kg/injection, schedule: Q01DX009 (ip), vehicle: saline 89 % of control | [16] 106 % of control | dose: 50.0 mg/kg/injection, schedule: Q01DX009 (ip), vehicle: saline 89 % of control | [17] 111 % of control | [6] 102 % of control

Nc1ccc(-c2ccc3ccccc3n2)cc1
inactive: dose: 12.0 mg/kg/injection, schedule: Q01DX009 (ip), vehicle: Klucel (hydroxypropylcellulose) (HPC) 92 % of control | [18] 94 % of control | [9] 112 % of control | [10] 103 % of control

Cc1cc(=O)[nH]c2nc(N)ccc12
inactive: [19] 101 % of control | [13] 93 % of control | [14] 93 % of control | [15] 101 % of control

CSc1ccccc1C(=O)O
inactive: dose: 50.0 mg/kg/injection, schedule: Q01DX001 (ip), vehicle: carboxymethylcellulose (CMC) 100 % of control | [20] 100 % of control | [8] 97 % of control | [9] 103 % of control | [21] 94 % of control | [22] 95 % of control | [10] 94 % of control | dose: 400.0 mg/kg/injection, schedule: Q01DX001 (ip), vehicle: carboxymethylcellulose (CMC) 96 % of control | [11] 100 % of control | [12] 110 % of control

CC(=O)Nc1ccc(Cc2cc(=O)[nH]c(=O)[nH]2)cc1
inactive: dose: 9.38 mg/kg/injection, schedule: Q01DX001 (ip), vehicle: saline with Tween-80 106 % of control | dose: 18.75 mg/kg/injection, schedule: Q01DX001 (ip), vehicle: saline with Tween-80 96 % of control | dose: 37.5 mg/kg/injection, schedule: Q01DX001 (ip), vehicle: saline with Tween-80 104 % of control

COc1ccc(OC(C)=O)c(C=O)c1
inactive: [20] 100 % of control | [21] 103 % of control

O=C(NCCCl)NC1CCSc2ccccc21 (stereo not given)
inactive: [3] 101 % of control | [4] 95 % of control

Cn1cccc1/C=C/[N+](=O)[O-]
inactive: [19] 104 % of control | [13] 91 % of control

O=[N+]([O-])c1cc([As](=O)(O)O)ccc1O
inactive: dose: 6.25 mg/kg/injection, schedule: Q04DX003 (ip), vehicle: saline 100 % of control | dose: 12.5 mg/kg/injection, schedule: Q04DX003 (ip), vehicle: saline 100 % of control | [16] 92 % of control and 100 % of control | [17] 106 % of control | [6] 105 % of control

CCOC(=O)NCC(CCN(C)C)(c1cccc2ccccc12)C(C)CC (stereo not given)
inactive: [18] 94 % of control | [23] 94 % of control | dose: 50.0 mg/kg/injection, schedule: Q04DX003 (ip), vehicle: Klucel (hydroxypropylcellulose) (HPC) 105 % of control | [9] 103 % of control

COc1ccc([N+](=O)[O-])cc1NC(=O)Nc1cccc(O)c1
inactive: [23] 90 % of control | [8] 90 % of control | [22] 90 % of control

CN1C(=O)NC(C)(c2cccs2)C1=O (stereo not given)
inactive: dose: 100.0 mg/kg/injection, schedule: Q01DX009 (ip), vehicle: saline with Tween-80 112 % of control | [3] 99 % of control | dose: 200.0 mg/kg/injection, schedule: Q01DX009 (ip), vehicle: saline with Tween-80 113 % of control | [4] 106 % of control | [5] 97 % of control

CNCC(=O)Nc1ccc(NC(=O)CNC)cc1
inactive: [24] 96 % of control | dose: 200.0 mg/kg/injection, schedule: Q04DX002 (ip), vehicle: Klucel (hydroxypropylcellulose) (HPC) 104 % of control

ON=C1CCSCC1
inactive: [13] 107 % of control | [14] 98 % of control | [15] 108 % of control

OCCCCCCCCCCCO
inactive: [6] 100 % of control | [7] 93 % of control | dose: 400.0 mg/kg/injection, schedule: Q04DX003 (ip), vehicle: saline 93 % of control

C=CCN(CC=C)C(=O)C(C)O (stereo not given)
inactive: [3] 103 % of control | [4] 103 % of control | [5] 98 % of control

CC(C)(C)CC(C)(C)c1ccc(OCCOS(=O)(=O)c2cccc([N+](=O)[O-])c2)cc1
inactive: [3] 94 % of control | [4] 90 % of control

OCCOc1ccc(-c2ccccc2)cc1
inactive: dose: 75.0 mg/kg/injection, schedule: Q04DX002 (ip), vehicle: Klucel (hydroxypropylcellulose) (HPC) 101 % of control | dose: 150.0 mg/kg/injection, schedule: Q04DX002 (ip), vehicle: Klucel (hydroxypropylcellulose) (HPC) 105 % of control | dose: 300.0 mg/kg/injection, schedule: Q04DX002 (ip), vehicle: Klucel (hydroxypropylcellulose) (HPC) 108 % of control

CC(NC(=O)OCc1ccccc1)C(=O)NC(CC(N)=O)C(=O)O (stereo not drawn) (Cbz-Ala-Asn-OH; configuration not given here)
inactive: dose: 25.0 mg/kg/injection, schedule: Q04DX002 (ip), vehicle: Klucel (hydroxypropylcellulose) (HPC) 95 % of control | dose: 50.0 mg/kg/injection, schedule: Q04DX002 (ip), vehicle: Klucel (hydroxypropylcellulose) (HPC) 95 % of control | [24] 95 % of control
